The values that follow come from patent publication US9339488B2, “Anti-cervical cancer compound and method of use thereof” (Hong Kong Baptist University, priority 2013, dated 2016).

One series relates to HeLa LC3-GFP cells. Kind of series: Fluorescence microscopy of GFP-LC3 puncta formation (autophagy). Conditions: 1-20 μM for 24 hours, 10 μM for 6, 12 and 24 hours, FIG. 1, 2. The format is cell-based, human. As to the method:
LC3, a known autophagy indicator, is used to show Griffipavixanthone's ability to induce autophagy in cancer cells and thus provide anti-cancer property. 1×10^5/ml HeLa LC3-GFP cells are seeded in a 35 mm×10 mm culture dish and preincubated for 24 hours before treatment with griffipavixanthone. HeLa LC3-GFP cells are treated with vehicle (control), 1 μM, 5 μM, 10 μM and 20 μM for 24 hours. After treatment of griffipavixanthone, the medium is removed from the dish and 4% methyl aldehyde with 0.3% triton-100 is added for fastening and permeation. The staining solution DAPI is added. Fluorescence of the bound dyes is analyzed using a laser scanning confocal microscope (FV10i, OlympusCorporation, Japan). […] Griffipavixanthone induces autophagy in cervical cancer cells at concentration and time dependent manner.

Series [1] concerns HeLa cells. Kind of series: MTT cytotoxic assay. The format is cell-based. As to conditions: 0.1-20 μM, 72 hours; FIG. 3. How it is done: Human cervical cancer cell lines HeLa are maintained in DMEM (Invitrogen) supplemented with 10% newborn calf serum (Gibco, Life technologies Corporation, New Zealand), 1% penicillin/streptomycin (Invitrogen). Cells are maintained in a humidified atmosphere containing 5% CO2 at 37° C.
4×10^4/ml HeLa cells are seeded in a 96-well plate and preincubated for 24 hours before treatment with Griffipavixanthone (0.1-20 μM). After 72 hours, 10 μl of MTT solution (5 mg/ml) (Sigma Chemical Company, St. Louis, Mo., USA) are added to each well for 4 hours. The resulting crystals are dissolved in DMSO. The controls are native cells treated with medium only. The spectrophotometric absorbance at 570 nm is measured using a microplate reader (Synergy HT, Bio-Tek Instruments Inc., Winooski, Vt., USA). The percentage cytotoxicity is calculated by the formula: Percentage cytotoxicity (cell death)=[1-(absorbance of experimental wells/absorbance of control wells)]×100%.
Background: Formazan colour is commonly taken as a measure of viable cells.

For series [2], the system named is HeLa cells. Kind of series: Flow cytometer (FACS, PI staining) analysis of cell death. The format is cell-based, human. As to conditions: 1 and 10 μM, 24 hours; DMEM vs EBSS (serum-free medium); FIG. 4. How it is done: 3×10^5/ml HeLa cells are treated with Griffipavixanthone (1 and 10 μM) for 24 hours. Cells are trypsinized and fixed in ice-cold 100% methanol overnight at 4° C. Cells are washed, incubated with the staining solution (100 μg/ml RNase A and 20 μg/ml PI in Phosphate Buffer Saline (PBS) with 5% NBCS) for 60 minutes, and subjected to fluorescence activated cell sorting (FACS) analysis on a FACScan flowcytometer (BD PharMingen, USA). Data are analyzed using the FlowJo software.
A general note: A flow cytometer gives signals particle by particle.

Series [3] deals with HeLa cells. Nature of the series: Western blot analysis of LC3-I, LC3-II and p62 expression. The format is cell-based, human. As to conditions: 0, 1 and 5 μM, 24 hours; FIG. 5. How it is done: 6×10^5/ml HeLa cells are treated with Griffipavixanthone (0, 1 and 5 μM) for 24 hours. Cells are collected and cleavaged by RIPA and PMSF. Proteins are extracted and separated by 12% gel SDS-PAGE, and then are transferred to PVDF. Membranes are blocked with 5% nonfat dry milk in TBST for 0.5 hour. They are incubated and exposed with the respective primary antibodies, testing the content change of protein. The primary antibodies used to detect proteins in autophagy pathway: LC3 (16, 18 kD), p62 (62 kD) and GAPDH (37 kD).
In general terms: In western blotting, separated proteins are transferred to a membrane and probed.

Series [4] relates to HeLa cells xenograft tumor. Kind of series: Inhibition of tumor growth in HeLa xenograft nude mouse model. The format is in vivo, nude mice. Conditions: intratumor injection 40 ng/kg/day or 80 ng/kg/day once every other day for 18 days; FIG. 6. How it is done:
A total of 2×10^6 HeLa cells suspended in 100 μL of saline are inoculated s.c. into the right flank of 4-week-old male nude mice. Drug injections are made once the tumors reach an average volume of about 100 mm^3. Mice are divided randomly into two groups and subjected to intratumor injection of vehicle or Griffipavixanthone (40 ng/kg/day or 80 ng/kg/day) once every other day for 18 days. A total 2 μg/mouse and 4 μg/mouse are given to the two groups of mice in the 18 days treatment. Tumor volume is measured by caliper measurements (V=L×W^2/2). For intratumor injection, Griffipavixanthone is prepared in 0.5% dimethyl sulfoxide, 0.5% tween 80, and 99% PBS. […] The dosage of administered Griffipavixanthone is translated to a human dosage of 3.2 ng/kg/day to 6.4 ng/kg/day with the equation: human equivalent dose=animal dose×animal Km/human Km, where mouse Km factor is 3 and human Km factor is 37 as disclosed in Reagan-Shaw, S., Nihal, M. and Ahmad N., “Dose translation from animal to human studies revisited”, The FASEB Journal, Life Science Forum, disclosure of which is incorporated herein by reference in its entity.

For series [5], the system named is leukemia cells, lung cancer cells and fibrosarcoma cells. Conditions: Tetrahedron Letters 1998, 39: 9103-9106; cited from earlier work.

`CC1=CC2c3c(c(O)c(O)c4oc5cc(O)cc(O)c5c(=O)c34)C(c3cc(O)c(O)c4oc5cc(O)cc(O)c5c(=O)c34)C2C(C)(C)C1` (stereo not drawn) [Griffipavixanthone]: the “GFP-LC3 puncta formation (percentage of GFP-LC3 positive cells)” value with HeLa LC3-GFP cells was “increases GFP-LC3 puncta formation at concentration and time dependent manner”. For the same compound, in the series on HeLa cells [1], the “HeLa cell viability / cytotoxicity (MTT)” value was “inhibit HeLa cell lines at concentration dependent manner”. Besides, in the series on HeLa cells [2], the “HeLa cell death (FACS)” value is reported as “induces HeLa cell death significantly in serum-free medium at concentration dependent manner”. The “Autophagosome accumulation (LC3-I, LC3-II, p62 immunoblot)” value in the series on HeLa cells [3] is “increases autophagosome accumulation and induces autophagy”. Further, in series [4], the “Tumor growth (tumor volume)” value is “growth of tumor is inhibited”. Moreover, the In vitro cytotoxicity result in series [5] is “high in vitro cytotoxity”.
